Test results from patent US12583818B2 (DAEGU-GYEONGBUK MEDICAL INNOVATION FOUNDATION, priority 2020, dated 2026).
Like-named read-outs stand apart in the source and are kept apart here.

Experiments:
[1] = test system: MDA-MB 231 triple negative breast cancer cell line; assay: MDA-MB 231 protein expression inhibition (Western blotting, cycline D1 vs Vinculin); assay type: cell-based; conditions: Homo sapiens, compound 10 μM, 72 hours, cycline D1 Western blot, read-out: MBA-MB-231 (amount of the protein compared to the DMSO-treated control group)
Procedure: In order to confirm the ability of the compound represented by formula 1 according to the present invention to inhibit the protein expression of MDA-MB 231 triple negative breast cancer cell line, the following experiment was performed, and the results are shown in Table 3 below.
MDA-MB-231 cells were cultured in a 5% CO2 incubator at 37° C. using RPMI medium supplemented with 10% FBS and 1% penicillin/streptomycin.
The cells were washed with PBS once a day, and then replaced with a new medium. The cells grown at the density of at least 90% 1 day before the experiment were detached using trypsin/EDTA, and then plated at the density of 100,000 per well in a 6-well plate.
On the next day of culture, the compound prepared in each example was treated at a concentration of 10 μM, and DMSO was treated at a concentration of 0.1% of the total as the control, followed by incubation for 72 hours. After 72 hours, the cells were washed twice with PBS, collected by scraping, and centrifuged at 13,000 rpm for 3 minutes to remove all the supernatant and only cells were taken.
RIPA buffer (containing 1× protease inhibitor and phosphatase inhibitor) was added to the prepared cells (80 μl/well), and the plate was shaken once every 5 minutes to disrupt the cells for a total of 15 minutes. The disrupted cells were centrifuged at 13,000 rpm for 15 minutes to collect only the supernatant protein. The obtained protein was quantified using a BCA protein quantification kit (Pierece, MA, USA), and a total of 10 μg of the protein was used for Western blotting.
The protein sample was isolated by 10% SDS-PAGE, and transferred to a PVDF membrane. Anti-human cycline D1 antibody (Cell signal) and anti-Vinculin antibody were bound to the protein sample, and the expression of the protein was measured by using an ECL reagent and LAS4000 equipment. The measurement results were quantified and generalized using ImageJ. The results are shown in Table 3 below by dividing the grades A to D according to the amount of the protein compared to the DMSO-treated control group.

Pin1 = target: T1, Pin1 (Homo sapiens, UniProt Q13526); assay: Evaluation of Pin1 enzyme inhibitory activity (Sensolyte Green Pin1 assay kit); assay type: biochemical
T1 construct: purchased Anaspec
In short: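 Pin1 activity was measured with a fluorogenic kit assay (Sensolyte Green) using substrate prepared at 1 μM and protein at 50 μg/ml, both pre-mix concentrations. Compound working solutions were 100, 10, 1 or 0.1 μM, and reactions ran 2 h at room temperature in the dark, read at 490/520 nm. Inhibition was graded A–D by concentration.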

[2] = test system: A2780 cells (ovarian cancer cells); assay: Cell viability of A2780 cells (Cell-titer Glo); assay type: cell-based; conditions: Homo sapiens
In short: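 A2780 ovarian cancer cells seeded at 3000 viable cells/well in RPMI-1640 with 10% FBS, dosed the next day and grown 3 days. Viability measured by Cell-titer Glo luminescence.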

[3] = test system: A2780-SP cells (ovarian cancer stem cells); assay: Sphere cell viability of A2780-SP cells (Cell-titer Glo); assay type: cell-based
In short: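 A2780-SP ovarian cancer stem cells grown as spheres in ultra-low-attachment wells (1,500 cells/well) in neurobasal stem-cell medium with bFGF, EGF, B27. Compound added the day after plating, re-dosed on day 4, 8-day culture total; viability by CellTiter-Glo luminescence.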

[4] = Table 2, read-out: concentration at which Pin1 inhibitory activity was exhibited
[5] = concentration at which the Pin1 enzyme activity is inhibited, 2 hours at room temperature, fluorescence 490 nm/520 nm, read-out: Pin 1 inhibition
[6] = 72 h, cell viability, culture for 3 days, read-out: A2780
[7] = 192 h, sphere cell viability, culture for 8 days, read-out: A2780-SP
[8] = Table 5, read-out: the concentration (second list of b710, cell line not named; matches A2780-SP column)
[9] = A2780, Table 5, read-out: A2780 cell concentration

T1 sequence (Q13526 whole entry): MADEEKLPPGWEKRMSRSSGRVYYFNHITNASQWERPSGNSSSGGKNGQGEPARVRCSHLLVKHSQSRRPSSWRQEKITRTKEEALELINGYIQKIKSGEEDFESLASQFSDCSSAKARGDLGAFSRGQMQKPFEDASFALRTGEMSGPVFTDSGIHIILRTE

Row | SMILES | IC50 (Pin1; [4]) [µM] | IC50 (Pin1; [5]) [µM] | IC50 [2, 6] [µM] | IC50 [3, 7] [µM] | IC50 [3, 8] [µM] | IC50 [2, 9] [µM] | activity at 10 µM [1] [%]
1 | O=S(=O)(NCCCc1c[nH]c2ccc(Cl)cc12)c1ccc(OCCCC2CCNCC2)cc1 [Example 93, N-(3-(5-chloro-1H-indole-3-yl)propyl)-4-(3-(piperidine-4-yl)propoxy)benzenesulfonamide] | < 1 | < 1 | 1 to 10 | < 1 | < 1 | < 10 | 0 to 35
2 | CN1CCN(CCCOc2ccc(S(=O)(=O)NCCCc3c[nH]c4ccc(Cl)cc34)cc2F)CC1 [Example 103, N-(3-(5-chloro-1H-indole-3-yl)propyl)-3-fluoro-4-(3-(4-methylpiperazine-1-yl)propoxy)benzenesulfonamide] | < 1 | < 1 | > 10 | < 1 | < 1 |  | 35 to 50
3 | CN1CCN(CCCOc2ccc(S(=O)(=O)NCCCc3c[nH]c4ccc(F)cc34)cc2)CC1 [Example 56, N-(3-(5-fluoro-1H-indol-3-yl)propyl)-4-(3-(4-methylpiperazin-1-yl)propoxy)benzenesulfonamide] | < 1 | < 1 | 1 to 10 | < 1 | < 1 | < 10 | 35 to 50
4 | Cc1[nH]c2ccccc2c1CCCNS(=O)(=O)c1ccc(OCCCN2CCN(C)CC2)cc1 [Example 58, N-(3-(2-methyl-1H-indol-3-yl)propyl)-4-(3-(4-methylpiperazin-1-yl)propoxy)benzenesulfonamide] |  | 1 to 10 |  |  |  |  | 70 to 100
5 | CN1CCN(CCCOc2ccc(S(=O)(=O)NCCCc3c[nH]c4ccc(Cl)cc34)cc2)CC1 [Example 66, N-(3-(5-chloro-1H-indol-3-yl)propyl)-4-(3-(4-methylpiperazin-1-yl)propoxy)benzenesulfonamide] | < 1 | < 1 | 1 to 10 | < 1 | < 1 | < 10 | 0 to 35
6 | O=S(=O)(NCCCc1c[nH]c2ccc(Cl)cc12)c1ccc(NCCCC2CCNCC2)cc1 [Example 88, N-(3-(5-chloro-1H-indole-3-yl)propyl)-4-((3-(piperidine-4-yl)propyl)amino)benzenesulfonamide] | < 1 | < 1 | > 10 | < 1 | < 1 |  | 50 to 70
7 | CCN1CCN(CCCOc2ccc(S(=O)(=O)NCCCc3c[nH]c4ccccc34)cc2)CC1 [Example 36, N-(3-(1H-indol-3-yl)propyl)-4-(3-(4-ethylpiperazin-1-yl)propoxy)benzenesulfonamide] |  | 1 to 10 |  |  |  |  | 70 to 100
8 | CN1CCN(c2cccc(Nc3ccc(S(=O)(=O)NCCCc4c[nH]c5ccc(Cl)cc45)cc3)c2)CC1 [Example 123, N-(3-(5-chloro-1H-indole-3-yl)propyl)-4-((3-(4-methylpiperazine-1-yl)phenyl)amino)benzenesulfonamide] | < 1 | < 1 | 1 to 10 | 1 to 10 |  | < 10 | 70 to 100
9 | O=S(=O)(NCCCc1c[nH]c2ccc(Cl)cc12)c1ccc(CCCCN2CCCCC2)cc1 [Example 90, N-(3-(5-chloro-1H-indole-3-yl)propyl)-4-(4-(piperidine-1-yl)butyl)benzenesulfonamide] | < 1 | < 1 | > 10 | < 1 | < 1 |  | 35 to 50
10 | O=S(=O)(NCCCc1c[nH]c2ccccc12)c1ccc(OCCCN2CCNCC2)cc1 [Example 45, N-(3-(1H-indol-3-yl)propyl)-4-(3-(piperazin-1-yl)propoxy)benzenesulfonamide] |  | 1 to 10 |  |  |  |  | 70 to 100
11 | O=S(=O)(NCCCc1c[nH]c2ccc(Cl)cc12)c1ccc(OCCCN2CCC(F)CC2)cc1 [Example 80, N-(3-(5-chloro-1H-indol-3-yl)propyl)-4-(3-(4-fluoropiperidin-1-yl)propoxy)benzenesulfonamide] |  | 1 to 10 |  |  |  |  | 35 to 50
12 | CN1CCC(CCOc2ccc(S(=O)(=O)NCCCc3c[nH]c4ccccc34)cc2)CC1 [Example 55, N-(3-(1H-indol-3-yl)propyl)-4-(2-(1-methylpiperidin-4-yl)ethoxy)benzenesulfonamide] |  | 10 to 100 |  |  |  |  | 70 to 100
13 | CN1CCC(CCCOc2ccc(S(=O)(=O)NCCCc3c[nH]c4ccccc34)cc2)CC1 [Example 60, N-(3-(1H-indol-3-yl)propyl)-4-(3-(1-methylpiperidin-4-yl)propoxy)benzenesulfonamide] |  | 1 to 10 |  |  |  |  | 50 to 70

More lines, main results first:

Row | IC50 (Pin1; [4]) [µM] | IC50 (Pin1; [5]) [µM] | IC50 [2, 6] [µM] | IC50 [3, 7] [µM] | IC50 [3, 8] [µM] | IC50 [2, 9] [µM] | SMILES | activity at 10 µM [1] [%]
14 | < 1 | < 1 | > 10 | < 1 | < 1 |  | O=S(=O)(NCCCc1c[nH]c2ccc(Cl)cc12)c1ccc(OCCCN2CCC(O)CC2)c(F)c1 [Example 105, N-(3-(5-chloro-1H-indol-3-yl)propyl)-3-fluoro-4-(3-(4-hydroxypiperidin-1-yl)propoxy)benzenesulfonamide] | 70 to 100
15 |  | 1 to 10 | 1 to 10 | < 1 | < 1 | < 10 | CN1CCC(CCCOc2ccc(S(=O)(=O)NCCCc3c[nH]c4ccc(F)cc34)cc2)CC1 [Example 59, N-(3-(5-fluoro-1H-indol-3-yl)propyl)-4-(3-(1-methylpiperidin-4-yl)propoxy)benzenesulfonamide] | 35 to 50
16 |  | 10 to 100 |  |  |  |  | CCN(CC)CCCOc1ccc(S(=O)(=O)NCCCc2c[nH]c3ccccc23)cc1 [Example 35, N-(3-(1H-indol-3-yl)propyl)-4-(3-(diethylamino)propoxy)benzenesulfonamide] | 0 to 35
17 |  | > 100 |  |  |  |  | O=C1CCCN1CCCOc1ccc(S(=O)(=O)NCCCc2c[nH]c3ccccc23)cc1 [Example 44, N-(3-(1H-indol-3-yl)propyl)-4-(3-(2-oxopyrrolidin-1-yl)propoxy)benzenesulfonamide] | 70 to 100
18 | < 1 | < 1 | 1 to 10 | < 1 | < 1 | < 10 | O=S(=O)(NCCCc1c[nH]c2ccc(F)cc12)c1ccc(OCCCN2CCNCC2)cc1 [Example 61, N-(3-(5-fluoro-1H-indol-3-yl)propyl)-4-(3-(piperazin-1-yl)propoxy)benzenesulfonamide] | 0 to 35
19 | < 1 | < 1 | > 10 | < 1 | < 1 |  | O=S(=O)(NCCCc1c[nH]c2ccc(Cl)cc12)c1ccc(OCCCN2CCNCC2)c(F)c1 [Example 104, N-(3-(5-chloro-1H-indol-3-yl)propyl)-3-fluoro-4-(3-(piperazin-1-yl)propoxy)benzenesulfonamide] | 70 to 100
20 | < 1 | < 1 | 1 to 10 | < 1 | < 1 | < 10 | O=S(=O)(NCCCc1c[nH]c2ccc(Cl)cc12)c1ccc(Oc2cccc(N3CCNCC3)c2)cc1 [Example 121, N-(3-(5-chloro-1H-indol-3-yl)propyl)-4-(3-(piperazin-1-yl)phenoxy)benzenesulfonamide] | 0 to 35
21 | < 1 | < 1 |  |  |  |  | CN1CCN(CCCOc2ccc(S(=O)(=O)NCCCc3c[nH]c4ccc(Cl)cc34)c3ccccc23)CC1 [Example 86, N-(3-(5-chloro-1H-indole-3-yl)propyl)-4-(3-(4-methylpiperazine-1-yl)propoxy)naphthalene-1-sulfonamide] | 70 to 100
